Drawing on a melting point compilation (Tetko et al.), this text covers melting point for 113 compounds.

Each structure is given as a SMILES string.

`Nc1cc(-c2ccccc2)ccc1O`: the melting point was 200 °C. The compound `CC1=CC2(C)C3C(=O)OC(=O)C3C1C1C(=O)OC(=O)C12` (stereo not drawn) had a melting point of 268 to 270 °C.

In the case of `CC12CCCC1C1CCC3CC(O)CCC3(C)C1CC2` (stereo not drawn), the melting point was 148 °C. With `Cc1cc(C)c(S(=O)(=O)NN)c(C)c1`, the melting point worked out at 114 °C. For `c1ccc(CC(=NNc2cccc(NN=C(Cc3ccccc3)c3ccccc3)c2)c2ccccc2)cc1` the value was 164 °C. The compound `COc1ccc2c(c1)c(C=O)cn2C` registered a melting point of 135 °C.

The compound `Cc1cc2nc3c(=O)[nH]c(=O)nc-3n(C)c2cc1C` yielded a melting point of 320 °C.

Compound `O=C(/C=C/c1ccc(-c2ccc(Cl)cc2)o1)c1ccco1` gave a melting point of 148 °C.

In turn, `O=C(O)c1ccc(OC2CCOCC2)cc1` showed a melting point of 185 to 186 °C. For `COC(=O)NNC(=O)OC` the value was 129 to 131 °C. To `CCCCCCCCCCCC(=O)NC` belongs 68 °C; to `O=C(O)c1ccccc1OC(F)(F)F`, 79 °C; to `CC(C(=O)Nc1ccc(F)c(F)c1F)(C(F)(F)F)C(F)(F)F`, 44 °C.

For the compound `CC1=NN(c2ccc([N+](=O)[O-])cc2)C(=O)C1[N+](=O)[O-]` (stereo not drawn), the melting point is 119 °C. Regarding `CCCC(C)(C)C(C)(C)C`, the melting point is -54 °C. To `N#Cc1cc(Br)ccc1F` belongs 79 °C. `O=C1C=C(NCNc2ccccn2)C(=O)c2ccccc21` showed a melting point of 134 to 136 °C. For `Cc1cc2cc(Cl)ccc2[nH]1`, the melting point lay within 112 to 118 °C. On to `CCCCC1=NC2(CCCC2)C(=O)N1Cc1ccc(-c2ccccc2-c2nnn[nH]2)cc1`, for which the melting point is 180 °C. To `O=C1C=C(NCc2ccccn2)C(=O)c2ccccc21` belongs 149 °C; to `OCC(CO)(CCl)CCl`, 83 °C; to `FC(F)(F)c1cc(Cl)c2cc(Cl)ccc2n1`, 104 to 107 °C. The compound `O=C(CC(=O)c1cc(Br)ccc1O)c1ccccc1` yielded a melting point of 100 to 103 °C. In turn, `N#CCCCCCN` yielded a melting point of -31.4 °C.

`CSc1ncc(C(=O)O)n1Cc1ccccc1`: the melting point is 178 to 179 °C. To `NC(=O)C1CC1` belongs 124 °C; to `CCCCCCC(O)CCC` (stereo not drawn), -11 °C.

In the case of `CCCc1ccc(C(=O)CCC(=O)O)cc1`, the melting point was in the range of 117 to 119 °C.

Consider `CC12CC(c3ccccc3)C([N+](=O)[O-])C(O1)c1ccccc1N2` (stereo not drawn), for which the melting point was in the range of 193 to 194 °C. To `OCc1ccccc1COc1ccccc1` belongs 50 to 51 °C; to `COCc1cc(=O)oc2cc(O)c(Cl)cc12`, 196 to 198 °C. For `NNC(=O)c1cc(Cl)cc(Cl)c1` the value was 206 °C. For `c1coc(CSSCc2ccco2)c1` the value was 10 °C. `O=C1C(=O)C(Br)=C(Br)C(Br)=C1Br`: the melting point was in the range of 143 to 148 °C. For `Oc1ccc2c(c1)C13CCCCC1(O)C(C2)N(CC1CCC1)CC3` (stereo not drawn) the value was 216 °C; for `O=Cc1ccc(Br)cc1`, 67 °C; for `O=[N+]([O-])c1ccc(Br)s1`, 44 °C. For the compound `COc1ccc2c(c1)C(=O)C(=O)N2`, the melting point stood at 200 °C. `O=C1NC(=O)C(=NNc2ccccc2[N+](=O)[O-])C(=O)N1` registered a melting point of 290 °C. For `Cc1ccc2nc3sc(=O)sc3nc2c1` the value was 170 °C; for `Cc1cc(C(=O)O)oc1C`, 146 to 148 °C; for `O=C(Nc1c(Cl)cccc1Cl)C(C(F)(F)F)C(F)(F)F`, 196 °C. For the compound `NS(=O)(=O)c1cc(F)c(Br)cc1F`, the melting point stood at 165 °C.

`COc1ccccc1C1Nn2c(nnc2-c2cccnc2)S1` (stereo not drawn) showed a melting point of 221 °C. For `N#C/C(=N\Nc1ccc2ccccc2c1)c1nc(-c2ccc(Cl)cc2)cs1` the value was 218 °C; for `CC(C)N(C(=O)SCC(Cl)=CCl)C(C)C`, 25 °C; for `O=[N+]([O-])c1ccccc1/C=C/c1ccccn1`, 214 °C. `CCCCCCCCCCCCCCCCCCCCCCCCO` showed a melting point of 75 to 77 °C. To `C1COCCOCCOCCOCCOCCN1` belongs 48 °C; to `Cc1cnc(Br)c(N)c1`, 105 °C; to `CC1CCc2cc(F)cc3c(=O)c(C(=O)O)cn1c23` (stereo not drawn), 253 °C. With `Cn1c(=O)c(C2=NNC(=O)C2=NNc2ccc(Br)cc2)c(O)c2ccccc21`, the melting point was determined as 260 °C.

The compound `CCN1CCCC1CNC(=O)c1cc(S(=O)(=O)CC)ccc1OC` (stereo not drawn) displayed a melting point of 182 °C. For `CSc1nc(=O)n(C)c2c1CCC2` the value was 145 to 146 °C. With `Cc1cc(C(C)(C)C)cc(C)c1I`, the melting point amounted to 56 °C.

The compound `ClCc1cc2ccccc2nc1Cl` came in with a melting point of 114 to 115 °C. For `NC(=S)c1ccc[nH]1` the value was 161 to 163 °C.

In turn, `O=S(=O)(Cl)c1ccc(Br)s1` had a melting point of 41 °C. For `Nc1ccc(CN2CCCCC2)cc1` the value was 87 to 88 °C. Turning to `N#Cc1cc(C(F)(F)F)ccc1N1CCOCC1`, the melting point was in the range of 53 to 55 °C.

The compound `Cc1cccc(NC(=O)c2cnc(C(C)(C)C)c(Cl)n2)c1` returned a melting point of 99 °C. To `CC12CCC(C(=CC(N)=O)C1=O)C2(C)C` (stereo not drawn) belongs 152 °C; to `CCC(CC)C(=O)O`, -14 °C; to `NCc1ccccc1Sc1ccccc1CO`, 97 °C. For the compound `CC(C)(C)OC(=O)N1CCN(c2ccc(I)cc2)CC1`, the melting point fell in the range of 150 to 151 °C. For `O=C(O)c1ccc(CBr)c([N+](=O)[O-])c1` the value was 131 °C. To `[O-][N+](=Nc1ccccc1)c1ccc(N=Nc2ccc([N+]([O-])=Nc3ccccc3)cc2)cc1` belongs 138 to 139 °C; to `Cc1ccc(Br)c(C)c1`, -17 °C. As to `O=C(O)c1cc(O)[nH]c(=O)c1`, the melting point worked out at 300 °C. On to `CC(CCc1ccccc1)NC(C)C(O)c1cc(I)c(O)c(I)c1` (stereo not drawn), for which the melting point is 212 °C.

Turning to `COc1cc(C)cc(OC)c1O`, the melting point was 39 °C. To `Nc1ccc(S(=O)(=O)N2CCOCC2)cc1` belongs 216 to 218 °C; to `CC(=O)N(Nc1ccccc1)c1ccc(N=Nc2ccccc2)cc1`, 186 °C; to `CCOC(=O)/C=C/[C@@H]1[C@@H](c2ccccc2)N1C(=O)c1ccccc1`, 118 °C.

As for `CNc1ccc(C(=O)O)cc1`, the melting point was 160 to 163 °C. For `NCc1ccc(OC2CCOCC2)cc1` the value was 41.5 to 43.5 °C; for `O=C(O)CCC(=O)c1ccc(Cl)cc1`, 129 to 132 °C; for `Cc1cccc(CC(=O)O)c1`, 64 °C.

Compound `COc1ccc2nsnc2c1` showed a melting point of 82 to 83 °C.

Regarding `CC1CC2(C)C(CCC3C4CCC(O)C4(C)CCC32)CC1=O` (stereo not drawn), the melting point came out at 151 °C. To `CCC(=O)c1ccc(O)c(C)c1O` belongs 128 to 130 °C; to `CCCCCCCCCCCC(=O)OCC`, -2 °C; to `CC(C)(C)OC(=O)N[C@H](CC(=O)O)Cc1ccccc1`, 104 °C. `CC1(C)CCC(=O)CC1`: the melting point turned out to be 42 °C. For `Cc1ccc(C(C)C)c(C)c1` the value was -82 °C; for `O=S(=O)(O)CCCNC(CO)(CO)CO`, 240 °C. For `Nc1ccc(S(=O)(=O)NC(=O)c2ccccc2)cc1` the value was 182 °C. For `c1ccc(-c2nc(-c3ccccc3)nc(-c3ccccc3)n2)cc1`, the melting point turned out to be 235 °C. For `COc1c(C(C)C)oc2cc3oc(=O)ccc3cc12` the value was 85 °C; for `CC12CCC3C(CCC4CCCCC43C)C1CCC2O` (stereo not drawn), 166 °C. For `Nc1ccc2c(c1)C(=O)c1ccccc1C2=O` the value was 304 °C; for `COc1cccc(C2NC(=O)NC(C)=C2C(=O)OC(C)C)c1OC` (stereo not drawn), 167 °C; for `CC1CCC(C(C)C)C(OC(=O)C(C(=O)c2ccccc2)c2ccccc2)C1` (stereo not drawn), 115 °C. For the compound `COC(=O)[C@H](CSSC[C@@H](C(=O)OC)N1C(=O)[C@@H]2[C@H](C1=O)[C@@H]1C=C[C@H]2C1)N1C(=O)[C@@H]2[C@H](C1=O)[C@@H]1C=C[C@H]2C1`, the melting point was found to be 100 °C.

Regarding `C#CCl`, the melting point is -126 °C. Compound `Cc1ccc2sc(Br)cc2c1` displayed a melting point of 92 to 93 °C. For `Cc1ccc(C(c2ccc(C)o2)c2ccccc2O)o1` the value was 65 °C; for `COC(=O)C1(C)CCC(CCc2ccccc2)C1(C)C` (stereo not drawn), 44 °C; for `Nc1cccc(Cc2cccc(N)c2)c1`, 81.5 °C. Compound `Clc1ccc(Br)cn1` gave a melting point of 70 °C.

`COc1ccc(C2C(C#N)=C(N)Oc3[nH]nc(C(F)(F)F)c32)cc1` (stereo not drawn) returned a melting point of 204 °C.

`CSCCC(N)CO` (stereo not drawn) showed a melting point of 31 to 36 °C. Turning to `Cc1cc(C)c(CS(=O)(=O)Cc2c(C)cc(C)cc2C)c(C)c1`, the melting point fell in the range of 297 to 300 °C. On to `Clc1nnnn1-c1ccccc1`, for which the melting point was 123 °C. For `O=C1CC2CCCCC2C1` (stereo not drawn) the value was 10 °C; for `CCOc1cccc2c(=O)c(=O)c12`, 128 °C; for `c1cc2c3c(c4ccc5ccccc5c4cc3c1)CC2`, 174 °C. As for `C#CCCCC#C`, the melting point is -85 °C.

Compound `CC(C)CC(C)(C)CO` registered a melting point of -70 °C.

`Cn1c(=O)oc2ccccc21` returned a melting point of 82 to 86 °C.

Regarding `Cn1c2ccccc2n2c(=O)c3cccnc3c(C#N)c12`, the melting point fell in the range of 292 to 293 °C. Regarding `Brc1ccc(Br)nc1`, the melting point came out at 94 °C. For `O=C(O)c1c(F)cnc(F)c1F` the value was 110 °C.

The melting point is the temperature, or range, at which the solid turns liquid.
